Reference: ChEMBL document CHEMBL1146137, “Synthesis and evaluation of febrifugine analogues as potential antimalarial agents” (Bioorg Med Chem Lett, 2006)

How the values were obtained:
Hepatocyte = experiment: Cytotoxicity against rat hepatocytes; assay type: functional, cell-based
Plasmodium falciparum [1] = experiment: Antimalarial activity against chloroquine-sensitive Plasmodium falciparum D6; assay type: functional, organism-based
Plasmodium falciparum [2] = experiment: Antimalarial activity against chloroquine-resistant Plasmodium falciparum W2; assay type: functional, organism-based

Work on `COc1cccc2c(=O)n(CC(=O)C[C@H]3NCCC[C@@H]3O)cnc12` yielded an IC50 (Hepatocyte) of 0.016 µM, an IC50 (Plasmodium falciparum [1]) of 1.2 nM and an IC50 (Plasmodium falciparum [2]) of 1.3 nM.

`O=C(C[C@H]1NCCC[C@@H]1O)Cn1cnc2ccc(F)c(F)c2c1=O` showed an IC50 (Hepatocyte) of 17 µM, an IC50 (Plasmodium falciparum [1]) of 0.33 nM and an IC50 (Plasmodium falciparum [2]) of 0.39 nM.

Work on `CCN(CC)CCCC(C)Nc1ccnc2cc(Cl)ccc12` (stereo unspecified) [CHLOROQUINE] yielded an IC50 (Hepatocyte) of 19 µM.

Compound `Cc1ccc2c(=O)n(CC(=O)C[C@H]3NCCC[C@@H]3O)cnc2c1` has an IC50 (Hepatocyte) of 0.117 µM, an IC50 (Plasmodium falciparum [1]) of 2 nM and an IC50 (Plasmodium falciparum [2]) of 2.2 nM.

`Cc1cccc2c(=O)n(CC(=O)C[C@H]3NCCC[C@@H]3O)cnc12` gave an IC50 (Hepatocyte) of 0.14 µM, an IC50 (Plasmodium falciparum [1]) of 1.7 nM and an IC50 (Plasmodium falciparum [2]) of 1.9 nM.

In the case of `CC(C)(C)c1ccc2ncn(CC(=O)C[C@H]3NCCC[C@@H]3O)c(=O)c2c1`, the IC50 (Plasmodium falciparum [1]) is reported as 165 nM and the IC50 (Plasmodium falciparum [2]) is reported as 188 nM.

Compound `O=C(C[C@@H]1NCCC[C@H]1O)Cn1cnc2ccccc2c1=O` [FEBRIFUGINE] has an IC50 (Hepatocyte) of 0.169 µM, an IC50 (Plasmodium falciparum [1]) of 1.6 nM and an IC50 (Plasmodium falciparum [2]) of 1.9 nM.

`COc1ccc2c(=O)n(CC(=O)C[C@H]3NCCC[C@@H]3O)cnc2c1` showed an IC50 (Hepatocyte) of 0.015 µM, an IC50 (Plasmodium falciparum [1]) of 1.4 nM and an IC50 (Plasmodium falciparum [2]) of 1.3 nM.

For `O=C(C[C@H]1NCCC[C@@H]1O)Cn1cnc2ccc(C(F)(F)F)cc2c1=O`, the IC50 (Hepatocyte) was 15 µM, the IC50 (Plasmodium falciparum [1]) was 14 nM and the IC50 (Plasmodium falciparum [2]) was 16 nM.

Compound `O=C(C[C@H]1NCCC[C@@H]1O)Cn1cnc2cccc(C(F)(F)F)c2c1=O` has an IC50 (Hepatocyte) of 19 µM, an IC50 (Plasmodium falciparum [1]) of 0.43 nM and an IC50 (Plasmodium falciparum [2]) of 0.41 nM.

Work on `CC(C)(C)c1cccc2ncn(CC(=O)C[C@H]3NCCC[C@@H]3O)c(=O)c12` yielded an IC50 (Hepatocyte) of 70 µM, an IC50 (Plasmodium falciparum [1]) of 132 nM and an IC50 (Plasmodium falciparum [2]) of 160 nM.

`O=C(C[C@H]1NCCC[C@@H]1O)Cn1cnc2cccnc2c1=O` gave an IC50 (Hepatocyte) of 18 µM, an IC50 (Plasmodium falciparum [1]) of 1.2 nM and an IC50 (Plasmodium falciparum [2]) of 1.3 nM.

`O=C(C[C@H]1NCCC[C@@H]1O)Cn1cnc2ncccc2c1=O` showed an IC50 (Hepatocyte) of 22 µM, an IC50 (Plasmodium falciparum [1]) of 70 nM and an IC50 (Plasmodium falciparum [2]) of 109 nM.

`O=C(C[C@H]1NCCC[C@@H]1O)Cn1cnc2ccncc2c1=O` showed an IC50 (Hepatocyte) of 17 µM, an IC50 (Plasmodium falciparum [1]) of 1.5 nM and an IC50 (Plasmodium falciparum [2]) of 1.8 nM.

In the case of `O=C(C[C@H]1NCCC[C@@H]1O)Cn1cnc2ccc(F)cc2c1=O`, the IC50 (Hepatocyte) is reported as 13 µM, the IC50 (Plasmodium falciparum [1]) is reported as 4.7 nM and the IC50 (Plasmodium falciparum [2]) is reported as 5 nM.

Work on `O=C(C[C@H]1NCCC[C@@H]1O)Cn1cnc2c(F)cccc2c1=O` yielded an IC50 (Hepatocyte) of 16 µM, an IC50 (Plasmodium falciparum [1]) of 103 nM and an IC50 (Plasmodium falciparum [2]) of 100 nM.

With `O=C(C[C@H]1NCCC[C@@H]1O)Cn1cnc2cccc(F)c2c1=O` the IC50 (Hepatocyte) was 19 µM, the IC50 (Plasmodium falciparum [1]) was 1.3 nM and the IC50 (Plasmodium falciparum [2]) was 1.3 nM.

Work on `O=C(C[C@H]1NCCC[C@@H]1O)Cn1cnc2cnccc2c1=O` yielded an IC50 (Hepatocyte) of 19 µM, an IC50 (Plasmodium falciparum [1]) of 63 nM and an IC50 (Plasmodium falciparum [2]) of 73 nM.
